Experimental data as given in ChEMBL document CHEMBL2074550, “Carbamazepine is not a substrate for P-glycoprotein” (Br J Clin Pharmacol, 2001).

Legend:
[1] = target: T1, ATP-dependent translocase ABCB1 (Homo sapiens, UniProt P08183); assay: TP_TRANSPORTER: inhibition of Rhodamine 123 efflux (R123: 1.5 ug/mL, Carbamazepine: 100 uM) in human lymphocytes; type: functional, cell-based; conditions: lymphocyte
[2] = target: P-glycoprotein 1 and 3 (MDR1a/MDR1b) (Mus musculus, UniProt P21447+P06795); assay: TP_TRANSPORTER: no change in brain concentration in mdr1a/1b(-/-) mouse; type: functional, organism-based; conditions: in vivo
[3] = target: T1, ATP-dependent translocase ABCB1; assay: TP_TRANSPORTER: transepithelial transport (basal to apical) in Caco-2 cells; type: functional, cell-based

T1 sequence (P08183 whole entry): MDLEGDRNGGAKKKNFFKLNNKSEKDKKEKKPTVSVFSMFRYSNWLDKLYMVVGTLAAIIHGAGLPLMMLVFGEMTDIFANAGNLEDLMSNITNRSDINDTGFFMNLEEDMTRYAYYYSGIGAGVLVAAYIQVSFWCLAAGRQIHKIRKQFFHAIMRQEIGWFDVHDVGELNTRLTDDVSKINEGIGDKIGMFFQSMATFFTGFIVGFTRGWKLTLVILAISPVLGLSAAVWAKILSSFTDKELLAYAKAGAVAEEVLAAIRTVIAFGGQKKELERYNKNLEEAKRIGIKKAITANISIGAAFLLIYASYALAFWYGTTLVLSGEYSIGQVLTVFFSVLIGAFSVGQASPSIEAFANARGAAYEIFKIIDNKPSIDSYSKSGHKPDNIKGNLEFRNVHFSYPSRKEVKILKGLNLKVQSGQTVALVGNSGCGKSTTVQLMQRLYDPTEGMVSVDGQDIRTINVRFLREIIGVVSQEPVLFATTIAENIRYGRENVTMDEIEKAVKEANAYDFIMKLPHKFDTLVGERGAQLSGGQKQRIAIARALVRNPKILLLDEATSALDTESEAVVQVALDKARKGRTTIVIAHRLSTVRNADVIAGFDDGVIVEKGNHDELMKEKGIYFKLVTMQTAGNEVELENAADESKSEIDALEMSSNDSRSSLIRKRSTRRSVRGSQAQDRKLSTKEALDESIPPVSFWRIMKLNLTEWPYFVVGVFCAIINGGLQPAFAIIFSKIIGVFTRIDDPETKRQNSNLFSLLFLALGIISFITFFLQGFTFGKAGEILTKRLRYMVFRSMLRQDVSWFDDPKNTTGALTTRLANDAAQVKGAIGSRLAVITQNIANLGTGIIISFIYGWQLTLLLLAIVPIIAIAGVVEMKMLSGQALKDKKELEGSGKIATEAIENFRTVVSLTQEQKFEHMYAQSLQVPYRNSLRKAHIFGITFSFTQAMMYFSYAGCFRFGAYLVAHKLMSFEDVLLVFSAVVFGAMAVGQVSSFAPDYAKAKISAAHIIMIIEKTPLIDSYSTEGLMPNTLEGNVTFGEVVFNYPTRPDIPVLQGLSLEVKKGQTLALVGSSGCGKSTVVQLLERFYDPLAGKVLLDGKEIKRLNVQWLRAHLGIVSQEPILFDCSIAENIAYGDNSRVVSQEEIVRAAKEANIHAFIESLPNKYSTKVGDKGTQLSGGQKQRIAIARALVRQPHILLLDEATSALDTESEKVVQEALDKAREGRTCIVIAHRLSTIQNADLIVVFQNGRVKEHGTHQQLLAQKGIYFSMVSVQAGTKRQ

Activity [1]: is not an inhibitor [-]
Activity [2]: is not a substrate [-]
Activity [3]: is not a substrate [-]
SMILES: NC(=O)N1c2ccccc2C=Cc2ccccc21 [CARBAMAZEPINE]
